Source: patent US20240158394A1, “NEK7 INHIBITORS” (Halia Therapeutics, Inc., priority 2022, published 2024)

Target: full-length recombinant human NEK7 (Homo sapiens (Human), UniProt Q8TDX7)
Assay: NEK7 Enzymatic Assay
Assay type: biochemical
Conditions: casein substrate, [33P]-ATP, 2 hours at room temperature
How it was run: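 GST-tagged full-length human NEK7 (Sf9-expressed) with 1 mg/mL casein in HEPES pH 7.5/MgCl2 buffer, 1% DMSO; compounds 10 μM–0.5 nM preincubated 20 min at RT. Reaction started with [^33P]-ATP, 2 h at RT, P81 filter radioactivity read; IC50 from % activity remaining versus vehicle.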

Sequence of full-length recombinant human NEK7 (Q8TDX7 whole entry): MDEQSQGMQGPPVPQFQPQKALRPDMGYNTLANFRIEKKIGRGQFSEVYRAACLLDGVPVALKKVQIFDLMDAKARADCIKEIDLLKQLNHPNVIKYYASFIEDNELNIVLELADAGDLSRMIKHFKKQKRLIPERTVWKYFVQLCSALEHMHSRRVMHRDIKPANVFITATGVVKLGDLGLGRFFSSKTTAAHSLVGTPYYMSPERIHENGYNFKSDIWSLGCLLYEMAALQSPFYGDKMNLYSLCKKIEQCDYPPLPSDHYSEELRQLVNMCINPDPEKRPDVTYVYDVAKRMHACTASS

Compound	IC50 [µM]
CN1CCC(Oc2ccc(NC(=O)Nc3ccc(-c4cn(C5CC5)c5ncnc(N)c45)c4ccoc34)cc2C(F)(F)F)CC1 [Example I-67, 1-(4-(4-amino-7-cyclopropyl-7H-pyrrolo[2,3-d]pyrimidin-5-yl)benzofuran-7-yl)-3-(4-((1-methylpiperidin-4-yl)oxy)-3-(trifluoromethyl)phenyl)urea]	0.5 to 2
CC1(C)Cc2c(-c3cn(C4CCC4)c4ncnc(N)c34)ccc(NC(=O)Nc3cc(C4(C(F)(F)F)CC4)on3)c2O1 [Example I-122, 1-(4-(4-amino-7-cyclobutyl-7H-pyrrolo[2,3-d]pyrimidin-5-yl)-2,2-dimethyl-2,3-dihydrobenzofuran-7-yl)-3-(5-(1-(trifluoromethyl)cyclo-propyl)isoxazol-3-yl)urea]	0.5 to 2
CC1Cc2c(-c3cn(C4CC4)c4ncnc(N)c34)ccc(NC(=O)Nc3ccc(OC4CCN(C)CC4)c(C(F)(F)F)c3)c2O1 (stereo not shown) [Example I-58, 1-(4-(4-amino-7-cyclopropyl-7H-pyrrolo[2,3-d]pyrimidin-5-yl)-2-methyl-2,3-dihydro-benzofuran-7-yl)-3-(4-((1-methylpiperidin-4-yl)oxy)-3-(trifluoromethyl)phenyl)urea]	> 2
Nc1ncnc2c1c(-c1ccc(NC(=O)Nc3cc(C4(C(F)(F)F)CC4)on3)c3nc(C(F)(F)F)cn13)cn2C1CC1 [Example I-46, 1-(5-(4-amino-7-cyclopropyl-7H-pyrrolo[2,3-d]pyrimidin-5-yl)-2-(trifluoromethyl)-imidazo[1,2-a]pyridin-8-yl)-3-(5-(1-(trifluoromethyl)cyclo-propyl)isoxazol-3-yl)urea]	> 2
CN1CCC(Oc2ccc(NC(=O)Nc3ccc(-c4cn(C5CC5)c5ncnc(N)c45)c4c3OCC4)cc2C(F)(F)F)CC1 [Example I-55, 1-(4-(4-amino-7-cyclopropyl-7H-pyrrolo[2,3-d]pyrimidin-5-yl)-2,3-dihydrobenzofuran-7-yl)-3-(4-((1-methylpiperidin-4-yl)oxy)-3-(trifluorometh-yl)phenyl)urea]	0.2 to 0.5
CN1CCC(Oc2ccc(NC(=O)Nc3ccc(-c4cn(C5CC5)c5ncnc(N)c45)c4c3OC(C)(C)C4)cc2C(F)(F)F)CC1 [Example I-61, 1-(4-(4-amino-7-cyclopropyl-7H-pyrrolo[2,3-d]pyrimidin-5-yl)-2,2-dimethyl-2,3-dihydrobenzofuran-7-yl)-3-(4-((1-methylpiperidin-4-yl)-oxy)-3-(trifluoromethyl)phen-yl)urea]	> 2
CN1CCC(n2cc(-c3ccc(NC(=O)Nc4ccc(CN5CCN(C)CC5)c(C(F)(F)F)c4)c4nccn34)c3c(N)ncnc32)CC1 [Example I-134, 1-(5-(4-amino-7-(1-methyl-piperidin-4-yl)-7H-pyrrolo-[2,3-d]pyrimidin-5-yl)imidazo-[1,2-a]pyridin-8-yl)-3-(4-((4-methylpiperazin-1-yl)methyl)-3-(trifluoromethyl)phenyl)urea]	0.2 to 0.5
CC(C)c1cc(NC(=O)Nc2ccc(-c3cn(C4CC4)c4ncnc(N)c34)n3ccnc23)no1 [Example I-26, 1-(5-(4-amino-7-cyclopropyl-7H-pyrrolo[2,3-d]pyrimidin-5-yl)imidazo[1,2-a]pyridin-8-yl)-3-(5-isopropylisoxazol-3-yl)urea]	0.2 to 0.5
CCN1CCC(Oc2ccc(NC(=O)Nc3ccc(-c4cn(C5CC5)c5ncnc(N)c45)c4c3OC(C)C4)cc2C(F)(F)F)CC1 (stereo not shown) [Example I-121, 1-(4-(4-amino-7-cyclopropyl-7H-pyrrolo[2,3-d]pyrimidin-5-yl)-2-methyl-2,3-dihydro-benzofuran-7-yl)-3-(4-((1-ethylpiperidin-4-yl)oxy)-3-(trifluoromethyl)phenyl)urea]	> 2
CCN1CCC(Oc2ccc(NC(=O)Nc3ccc(-c4cn(C5CC5)c5ncnc(N)c45)c4c3OC(C)(C)C4)cc2C(F)(F)F)CC1 [Example I-123, 1-(4-(4-amino-7-cyclopropyl-7H-pyrrolo[2,3-d]pyrimidin-5-yl)-2,2-dimethyl-2,3-dihydrobenzofuran-7-yl)-3-(4-((1-ethylpiperidin-4-yl)oxy)-3-(trifluoromethyl)phenyl)urea]	> 2
CCc1cc(NC(=O)Nc2ccc(-c3cn(C4CC4)c4ncnc(N)c34)n3ccnc23)on1 [Example I-15, 1-(5-(4-amino-7-cyclopropyl-7H-pyrrolo[2,3-d]pyrimidin-5-yl)imidazo[1,2-a]pyridin-8-yl)-3-(3-ethylisoxazol-5-yl)-urea]	0.2 to 0.5
CC1Cc2c(-c3cn(C4CC4)c4ncnc(N)c34)ccc(NC(=O)Nc3ccc(CN4CCN(C)CC4)c(C(F)(F)F)c3)c2O1 (stereo not shown) [Example I-57, 1-(4-(4-amino-7-cyclopropyl-7H-pyrrolo[2,3-d]pyrimidin-5-yl)-2-methyl-2,3-dihydro-benzofuran-7-yl)-3-(4-((4-methylpiperazin-1-yl)methyl)-3-(trifluoromethyl)phenyl)urea]	0.5 to 2
Nc1ncnc2c1c(-c1ccc(NC(=O)Nc3cc(C4(C(F)(F)F)CCC4)on3)c3nccn13)cn2C1CC1 [Example I-33, 1-(5-(4-amino-7-cyclopropyl-7H-pyrrolo[2,3-d]pyrimidin-5-yl)imidazo[1,2-a]pyridin-8-yl)-3-(5-(1-(trifluoromethyl)-cyclobutyl)isoxazol-3-yl)urea]	0.2 to 0.5
CC(C)(C)c1cc(NC(=O)Nc2ccc(-c3cn(C4CC4)c4ncnc(N)c34)c3cccnc23)on1 [Example I-2, 1-(5-(4-amino-7-cyclopropyl-7H-pyrrolo[2,3-d]pyrimidin-5-yl)quinolin-8-yl)-3-(3-(tert-butyl)isoxazol-5-yl)urea]	> 2

The remaining lines, values ahead:

IC50 [µM]	Compound
< 0.2	CN1CCC(Oc2ccc(NC(=O)Nc3ccc(-c4cn(C5CC5)c5ncnc(N)c45)c4cnoc34)cc2C(F)(F)F)CC1 [Example I-70, 1-(4-(4-amino-7-cyclopropyl-7H-pyrrolo[2,3-d]pyrimidin-5-yl)benzo[d]isoxazol-7-yl)-3-(4-((1-methylpiperidin-4-yl)oxy)-3-(trifluoromethyl)-phenyl)urea]
< 0.2	CN1CCN(Cc2ccc(NC(=O)Nc3ccc(-c4cn(C5CCC5)c5ncnc(N)c45)n4ccnc34)cc2C(F)(F)F)CC1 [Example I-129, 1-(5-(4-amino-7-cyclobutyl-7H-pyrrolo[2,3-d]pyrimidin-5-yl)imidazo[1,2-a]pyridin-8-yl)-3-(4-((4-methylpiperazin-1-yl)methyl)-3-(trifluorometh-yl)phenyl)urea]
< 0.2	CC(C)(O)Cn1cc(-c2ccc(NC(=O)Nc3cc(C4(C(F)(F)F)CC4)on3)c3nccn23)c2c(N)ncnc21 [Example I-86, 1-(5-(4-amino-7-(2-hydroxy-2-methylpropyl)-7H-pyrrolo-[2,3-d]pyrimidin-5-yl)-imidazo[1,2-a]pyridin-8-yl)-3-(5-(1-(trifluoromethyl)-cyclopropyl)isoxazol-3-yl)urea]
< 0.2	COCCN1CCN(Cc2ccc(NC(=O)Nc3ccc(-c4cn(C5CC5)c5ncnc(N)c45)n4ccnc34)cc2C(F)(F)F)CC1 [Example I-40, 1-(5-(4-amino-7-cyclopropyl-7H-pyrrolo[2,3-d]pyrimidin-5-yl)imidazo[1,2-a]pyridin-8-yl)-3-(4-((4-(2-methoxyeth-yl)piperazin-1-yl)methyl)-3-(trifluoromethyl)phenyl)urea]
< 0.2	CN1CCN(Cc2ccc(NC(=O)Nc3ccc(-c4cn(C5CC(O)C5)c5ncnc(N)c45)n4ccnc34)cc2C(F)(F)F)CC1 (stereo not shown) [Example I-132, 1-(5-(4-amino-7-(3-hydroxy-cyclobutyl)-7H-pyrrolo[2,3-d]pyrimidin-5-yl)imidazo[1,2-a]pyridin-8-yl)-3-(4-((4-meth-ylpiperazin-1-yl)methyl)-3-(trifluoromethyl)phenyl)urea]
< 0.2	CCN1CCN(Cc2ccc(NC(=O)Nc3ccc(-c4cn(C5CC5)c5ncnc(N)c45)n4ccnc34)cc2C(F)(F)F)CC1 [Example I-35, 1-(5-(4-amino-7-cyclopropyl-7H-pyrrolo[2,3-d]pyrimidin-5-yl)imidazo[1,2-a]pyridin-8-yl)-3-(4-((4-ethylpiperazin-1-yl)methyl)-3-(trifluorometh-yl)phenyl)urea]
< 0.2	Nc1ncnc2c1c(-c1ccc(NC(=O)Nc3ccc(CN4CCN(CCO)CC4)c(C(F)(F)F)c3)c3nccn13)cn2C1CC1 [Example I-39, 1-(5-(4-amino-7-cyclopropyl-7H-pyrrolo[2,3-d]pyrimidin-5-yl)imidazo[1,2-a]pyridin-8-yl)-3-(4-((4-(2-hydroxyeth-yl)piperazin-1-yl)methyl)-3-(trifluoromethyl)phenyl)urea]
< 0.2	Nc1ncnc2c1c(-c1ccc(NC(=O)Nc3cc(C4(C(F)(F)F)CC4)on3)c3nccn13)cn2-c1cccnc1 [Example I-91, 1-(5-(4-amino-7-(pyridin-3-yl)-7H-pyrrolo[2,3-d]pyrimidin-5-yl)imidazo[1,2-a]pyridin-8-yl)-3-(5-(1-(trifluoromethyl)-cyclopropyl)isoxazol-3-yl)urea]
< 0.2	Cn1cc(-c2ccc(NC(=O)Nc3cc(C4(C(F)(F)F)CC4)on3)c3nccn23)c2c(N)ncnc21 [Example I-126, 1-(5-(4-amino-7-methyl-7H-pyrrolo[2,3-d]pyrimidin-5-yl)imidazo[1,2-a]pyridin-8-yl)-3-(5-(1-(trifluoromethyl)-cyclopropyl)isoxazol-3-yl)urea]
< 0.2	CC(C)(c1cc(NC(=O)Nc2ccc(-c3cn(C4CC4)c4ncnc(N)c34)n3ccnc23)no1)C(F)(F)F [Example I-31, 1-(5-(4-amino-7-cyclopropyl-7H-pyrrolo[2,3-d]pyrimidin-5-yl)imidazo[1,2-a]pyridin-8-yl)-3-(5-(1,1,1-trifluoro-2-methylpropan-2-yl)isoxazol-3-yl)urea]
< 0.2	CCN1CCC(Oc2ccc(NC(=O)Nc3ccc(-c4cn(C5CC5)c5ncnc(N)c45)n4ccnc34)cc2C(F)(F)F)CC1 [Example I-38, 1-(5-(4-amino-7-cyclopropyl-7H-pyrrolo[2,3-d]pyrimidin-5-yl)imidazo[1,2-a]pyridin-8-yl)-3-(4-((1-ethylpiperidin-4-yl)oxy)-3-(trifluoromethyl)-phenyl)urea]
